The test system of assay [1] is thoracic aorta of SH rats. Description: Vaso-relaxing effect on the thoracic aorta of SH rats (in vitro testing after one month treatment). It is filed as in vivo, rat. As to conditions: aorta rings of SH rats treated for one month (dose per compound as in table), contracted with 10^-6 M methoxamine, unit assumed; for vessel relaxing effect, Ach dose 10^-5 M: acetylcholine 10^-5 M; for vessel relaxing effect, Ach dose 10^-6 M: acetylcholine 10^-6 M; for vessel relaxing effect, Ach dose 10^-4 M: acetylcholine 10^-4 M. The protocol:
In the following, we give the results of the test of blood vessel relaxing effect, performed in vitro on rat vessels, and also the morphological results of the thoracic aorta.
(§1) Three-month-old, genetically hypertonic (SH) Wistar Okamoto rats were treated for one month with various test compounds. Thereafter the functional and morphological tests were performed.
The Vaso-relaxing Effect of the Compounds of the Invention on the Thoracic Aorta of SH Rats (In Vitro Testing)
The test was performed by the method known from the literature [Japan J. Pharmacol., 59, 339-347 (1992)]. The SH rats were anesthetized with Nembutal (40 mg/kg, i. p.), then the thoracic aorta was removed and placed in oxygenized (95% O2+5% CO2) Krebs-Henseleit solution. The composition of the solution (mM): NaCl 118, KCI 4, 7, CaCl2 2,52, MgSO4 1,64, NaHCO3 24,88, KH2PO4 1,18, glucose 5,5. The 3-mm-long aorta rings were suspended in a 20 ml organ bath of 37° C. The resting tension was 1 g, which was maintained throughout the equilibration. During the 1 hour equilibration, the medium was changed in every 20 minutes. The vessels were contracted with 10^−6 M methoxamine (approximately 80% of maximal contraction). After reaching the maximal contraction, we tested the vasodilation resulting as the effect of the acetylcholine (Ach) (10^−6−10^−4 M), which informed us about the condition of the endothelium of the vessel wall. The contraction force was measured by an isometric strain gauge (SG-01D, Experimentia Ltd), and was registered on an OH-850 polygraph (Radelkis). At this time again, 5,6-dihydro-5-(1-piperidinyl)-methyl-3-(3-pyridyl)-4H-1,2,4-oxadiazine as described in WO 98/06400 was used as a reference compound.

Assay [2] has as its system human umbilical vein endothelial cells (HUVEC). Nature of the assay: Wounding migration assay in endothelial cell culture. It is filed as cell-based. As to conditions: wounded HUVEC monolayer, 24 hours after wounding, test agent 10^-6 M. The protocol: Wounding Migration Assay in Endothelial Cell Culture
The effect of the compounds of the invention on the wounded monolayers of human umbilical vein endothelial cells (HUVEC) were studied in a cell culture system (in vitro). After reaching confluence, the HUVEC cells were wounded according to the method of Yamamura et al. (J. Surgical Res. 63, 349-354, 1996). The number of migrated cells were registered using computerized image analysis 24 hours after wounding in the absence and presence of the active agents under testing in a concentration of 10^−6 M. The active ingredient described in publication no. WO 98/06400, namely 5,6-dihydro-5-(1-piperidinyl)-methyl-3-(3-pyridyl)-4H-1,2,4-oxadiazine was used as reference compound.

In assay [3] the test system is thoracic aorta of SH rats. Nature of the assay: Morphological testing of the thoracic aortas with electron microscopy. It is filed as in vivo, rat. On the set-up: key: 1: no regeneration was observable; 2: weak; 3: average; 4: good; 5: strong regeneration. As to conditions: SH rats treated p. o. for one month (dose per compound as in table), scale of 1 to 5, electron microscopy of thoracic aorta endothelium. The protocol:
as §1
Morphological Testing of the Thoracic Aortas with Electron Microscopy
The test was performed according to the procedure known from the literature (Br. J. of Pharmacol., 1995; 115, 415-420). 1 mm^2 pieces of the aorta wall was cut out of the thoracic aorta of the rats, and were then fixed with 2.5% glutaraldehyde at room temperature for 2 hours. This was followed by a post-fixation with 1% osmium tetroxide for 1 hour. Afterwards, the tissue pieces were dehydrated with ethanol, and embedded in Durcupan ACM. The samples were evaluated qualitatively based on the images recorded on a Hitachi 7100 electron microscope.
On the scale, 1 was used to refer to cases where no regeneration was observable, 2 refers to weak, 3 to average, 4 to good, and 5 to strong regeneration.

The structures appear in SMILES notation.

As to `O=C1CCCCN1CC1CON=C(c2cccnc2)N1` (single isomer, unassigned) [Compound no. 8, (R) or (S)-5,6-dihydro-5-[(2-oxo-1-piperidinyl)methyl]-3-(3-pyridyl)-4H-1,2,4-oxadiazine], in assay [1], the vessel relaxing effect, Ach dose 10^-5 M was 88%.

On to `[O-][n+]1cccc(C2=NOCC(CN3CCCCC3)N2)c1` (single isomer, unassigned; (+)) [Compound no. 9, (+)-5,6-dihydro-5-[(1-piperidinyl)methyl]-3-(1-oxido-3-pyridyl)-4H-1,2,4-oxadiazine], for which the vessel relaxing effect, Ach dose 10^-6 M in assay [1] is 87%.

In assay [1], `O.O.O=[N+]([O-])c1cccc(C(Cl)=NOCCC[N+]2([O-])CCCCC2)c1` [Compound no. 4, N-[3-(1-oxido-1-piperidinyl)propoxy]-3-nitro-benzimidoyl-chloride dihydrate] displayed a vessel relaxing effect, Ach dose 10^-4 M of 88.1%; a vessel relaxing effect, Ach dose 10^-5 M of 84.9%; a vessel relaxing effect, Ach dose 10^-6 M of 82.5%. Further, the “number of migrated cells, cell/mm^2 24 hours” value (from here on “number of migrated cells”) in assay [2] was found to be 45 cell/mm^2. In assay [3], the Degree of regeneration is 5.

For the compound `OC1CCN(CC2CON=C(c3cccnc3)N2)CC1` (centres unmarked) [Compound no. 11, 5,6-dihydro-5-[(4-hydroxy-1-piperidinyl)methyl]-3-(3-pyridyl)-4H-1,2,4-oxadiazine], in assay [1], the vessel relaxing effect, Ach dose 10^-4 M is 86%; the vessel relaxing effect, Ach dose 10^-5 M worked out at 85.1%; the vessel relaxing effect, Ach dose 10^-6 M is 79.7%. Also, in assay [2], the “number of migrated cells” value is given as 51 cell/mm^2. The compound also registered a Degree of regeneration in assay [3] of 4.

In assay [1], `Cl.ClC(=NOCC(Cl)CN1CCCCC1)c1ccccc1` (centres unmarked) [Compound no. 12, N-[2-chloro-3-(1-piperidinyl)propoxy]-3-benzimidoyl-chloride hydrochloride] returned a vessel relaxing effect, Ach dose 10^-4 M of 80.4%; a vessel relaxing effect, Ach dose 10^-5 M of 83.5%; a vessel relaxing effect, Ach dose 10^-6 M of 82.3%. In addition, the “number of migrated cells” value in assay [2] was 60 cell/mm^2. Also, in assay [3], the Degree of regeneration came out at 3.

Turning to `O=C(NOCC(O)CN1CCCCC1)c1ccc[n+]([O-])c1` (centres unmarked) [Compound no. 13, N-[2-hydroxy-3-(1-piperidinyl)propoxy]-pyridin-1-oxide-3-carboxamide], in assay [1], the vessel relaxing effect, Ach dose 10^-4 M turned out to be 95.2%; the vessel relaxing effect, Ach dose 10^-5 M came out at 90.3%; the vessel relaxing effect, Ach dose 10^-6 M came to 88.4%. In addition, the “number of migrated cells” value in assay [2] is 54 cell/mm^2. Also, in assay [3], the Degree of regeneration turned out to be 4.

As to `c1cncc(C2=NOCC(CN3CCCCC3)N2)c1` (centres unmarked) [Reference, 5,6-dihydro-5-(1-piperidinyl)-methyl-3-(3-pyridyl)-4H-1,2,4-oxadiazine, reference compound], in assay [1], the vessel relaxing effect, Ach dose 10^-4 M was determined as 81.7%; the vessel relaxing effect, Ach dose 10^-5 M is 80.2%; the vessel relaxing effect, Ach dose 10^-6 M was 77.4%. In addition, the “number of migrated cells” value in assay [2] was found to be 30 cell/mm^2.

(Values after patent US7550457B2, “Pharmaceutically effective compounds” (CytRx Corporation, priority 2002, dated 2009).)
